Measurements published in PMC9738179, “New Nucleic Base-Tethered Trithiolato-Bridged Dinuclear Ruthenium(II)-Arene Compounds: Synthesis and Antiparasitic Activity” (Molecules, 2022).
Values joined by “and” are separate entries in the source; they are usually repeats but may differ in a detail not shown here. Identical values can stand only once.

Key:
[1] = test system: T. gondii β-gal tachyzoites; test: Primary screening: T. gondii β-gal proliferation in HFF monolayers at 0.1 and 1 µM (CPRG readout); assay type: cell-based, Toxoplasma gondii; conditions: tachyzoites cultured in HFF, 72 h, relative to DMSO control
Procedure: (§1) The screening cascade for the compounds was described in former studies. All compounds were prepared as 1 mM stock solutions from powder, in dimethyl sulfoxide (DMSO, Sigma, St. Louis, MO, USA). For in vitro activity and cytotoxicity assays, HFF were seeded at 5 × 10^3/well and allowed to grow to confluence in phenol-red free culture medium at 37 °C and 5% CO2. T. gondii tachyzoites were released from host cells, and HFF monolayers were infected with freshly isolated parasites (1 × 10^3/well), and compounds were added concomitantly with infection.
In the primary screening, HFF monolayers infected with T. gondii β-gal were treated with 0.1 and 1 µM of each compound, or the corresponding concentration of DMSO (0.01 or 0.1%, respectively) as controls and were incubated for 72 h at 37 °C/5% CO2 as previously described.
(§2) To measure the activity of the tested compound on T. gondii β-gal parasites, after a period of 72 h of culture at 37 °C/5% CO2, the culture medium was aspirated, and cells were permeabilized by adding 90 μL PBS (phosphate buffered saline) with 0.05% Triton X-100. Next, 10 μL of 5 mM chlorophenolred-β-D-galactopyranoside (CPRG; Roche Diagnostics, Rotkreuz, Switzerland, substrate for the β-galactosidase) in PBS were added. Release of chlorophenol red was measured at 570 nm using an EnSpire® multimode plate reader (PerkinElmer, Inc., Waltham, MA, USA). A 100% proliferation of T. gondii β-gal was assigned to control parasites treated only with DMSO. For the primary screening at 0.1 and 1 μM, the activity was measured as the release of chlorophenol red over time and was calculated as percentage from the respective DMSO treated control, which represented 100% of T. gondii β-gal growth.

[2] = test system: human foreskin fibroblasts (HFF); test: Cytotoxicity in non-infected HFF by alamarBlue assay; assay type: cell-based
Procedure: as §1
Cytotoxicity assays using uninfected confluent HFF host cells were performed by the alamarBlue assay as previously reported. Confluent HFF monolayers in 96 well-plates were exposed to 0.1, 1, and 2.5 μM of each compound. Non-treated HFF as well as DMSO controls (0.01%, 0.1%, and 0.25%) were included. After 72 h of incubation at 37 °C/5% CO2, the medium was removed, and the plates were washed once with PBS. Resazurin suspended in PBS to a final concentration of 0.01 g/L was added to each well (200 μL/well). Fluorescence was measured at excitation wavelength 530 nm and emission wavelength […] using an EnSpire® multimode plate reader (PerkinElmer, Inc, Waltham, MA, USA). The cytotoxicity values were calculated as percentage of the respective DMSO control, which represented 100% of HFF viability.

[3] = test system: T. gondii β-gal tachyzoites; test: Dose-response study (IC50) against T. gondii β-gal tachyzoites; assay type: cell-based, Toxoplasma gondii; conditions: 8 serial concentrations 0.007-1 µM, 72 h
Procedure: as §1
For the dose-response study (IC50 values), measurements for T. gondii β-gal were performed. The selected compounds were added concomitantly with infection in 8 serial concentrations 0.007, 0.01, 0.03, 0.06, 0.12, 0.25, 0.5, and 1 μM.
as §2
For the IC50 assays, the activity measured as the release of chlorophenol red over time was proportional to the number of live parasites down to 50 per well as determined in pilot assays. IC50 values were calculated after the logit-log-transformation of relative growth and subsequent regression analysis. All calculations were performed using the corresponding software tool contained in the Excel software package (Microsoft, Redmond, WA, USA).

[4] = 0.1 µM, non-infected HFF, 72 h, relative to DMSO control, triplicate
[5] = 2.5 µM, control 0.25% DMSO = 100%, six replicates
[6] = 1 µM, non-infected HFF, 72 h, relative to DMSO control, triplicate

Structure (SMILES) | T. gondii β-gal Growth (%) ([1]; 0.1 µM) | T. gondii β-gal Growth (%) ([1]; 1 µM) | HFF Viability (%) [2, 4] [%] | HFF Viability (%) [2, 5] | IC50 [3] [µM] | HFF Viability (%) ([2]; 0.1 µM) | HFF Viability (%) ([2]; 1 µM) | HFF Viability (%) ([2]; 2.5 µM) | HFF Viability (%) [2, 6] [%]
C#CCCCC(=O)Nc1ccc([S+]2[Ru-]3[S+](Cc4ccc(C(C)(C)C)cc4)[Ru-]2[S+]3Cc2ccc(C(C)(C)C)cc2)cc1.Cc1ccc(C(C)C)cc1.Cc1ccc(C(C)C)cc1.[Cl-] (centres unmarked) [Compound 5] | 21 ± 2 | 0 ± 0 | 101 ± 0 | 34% | 0.038 | – | – | – | –
C#Cc1ccc(C(=O)Nc2ccc([S+]3[Ru-]4[S+](Cc5ccc(C(C)(C)C)cc5)[Ru-]3[S+]4Cc3ccc(C(C)(C)C)cc3)cc2)cc1.Cc1ccc(C(C)C)cc1.Cc1ccc(C(C)C)cc1.[Cl-] (centres unmarked) [Compound 6] | 112 ± 1 | 6 ± 1 | 95 ± 1 | 17% | 0.288 | – | – | – | –
C#CCOC(=O)Cc1ccc([S+]2[Ru-]3[S+](Cc4ccc(C(C)(C)C)cc4)[Ru-]2[S+]3Cc2ccc(C(C)(C)C)cc2)cc1.Cc1ccc(C(C)C)cc1.Cc1ccc(C(C)C)cc1.[Cl-] (centres unmarked) [Compound 7] | 19 ± 1 | 0 ± 0 | 100 ± 2 | 51% | 0.289 | – | – | – | –
CC(C)(C)c1ccc(C[S+]2[Ru-]3[S+](Cc4ccc(C(C)(C)C)cc4)[Ru-]2[S+]3c2ccccc2CN=[N+]=[N-])cc1.Cc1ccc(C(C)C)cc1.Cc1ccc(C(C)C)cc1.[Cl-] (centres unmarked) [Compound 9] | – | 1 ± 1 | 96 ± 1 | 11% | 0.048 | – | – | – | –
CC(C)(C)c1ccc(C[S+]2[Ru-]3[S+](Cc4ccc(C(C)(C)C)cc4)[Ru-]2[S+]3c2ccc(N=[N+]=[N-])cc2)cc1.Cc1ccc(C(C)C)cc1.Cc1ccc(C(C)C)cc1.[Cl-] (centres unmarked) [Compound 10] | – | 1 ± 0 | 94 ± 1 | 38% | 0.064 | – | – | – | –
Nc1ncnc2c1ncn2CCO [Compound 14A, 9-(2-hydroxyethyl)adenine] | 104 ± 2 | 75 ± 11 | – | – | – | – | – | – | –
CC(C)(C)c1ccc(C[S+]2[Ru-]3[S+](Cc4ccc(C(C)(C)C)cc4)[Ru-]2[S+]3c2ccccc2Cn2cc(Cn3ccc(=O)[nH]c3=O)nn2)cc1.Cc1ccc(C(C)C)cc1.Cc1ccc(C(C)C)cc1.[Cl-] (centres unmarked) [Compound 19] | – | – | 93 ± 2 | 50% | 0.46 | – | – | – | –
Cc1ccc(C(C)C)cc1.Cc1ccc(C(C)C)cc1.Cc1cn(Cc2cn(Cc3ccccc3[S+]3[Ru-]4[S+](Cc5ccc(C(C)(C)C)cc5)[Ru-]3[S+]4Cc3ccc(C(C)(C)C)cc3)nn2)c(=O)[nH]c1=O.[Cl-] (centres unmarked) [Compound 20] | 102 ± 0 | 1 ± 0 | – | – | 0.363 | 100 ± 2 | 71 ± 2 | 39 | –
CC(C)(C)c1ccc(C[S]2[Ru]3[S](Cc4ccc(C(C)(C)C)cc4)[Ru+]2[S]3c2ccccc2Cn2cc(Cn3ccc(N)nc3=O)nn2)cc1.Cc1ccc(C(C)C)cc1.Cc1ccc(C(C)C)cc1.[Cl-] [Compound 21] | – | 0 ± 0 | – | – | 0.046 | 109 ± 2 | 89 ± 1 | 38 | –
CC(C)(C)c1ccc(C[S]2[Ru]3[S](Cc4ccc(C(C)(C)C)cc4)[Ru+]2[S]3c2ccccc2Cn2cc(Cn3cnc4c(N)ncnc43)nn2)cc1.Cc1ccc(C(C)C)cc1.Cc1ccc(C(C)C)cc1.[Cl-] [Compound 22] | 79 ± 3 | 1 ± 0 | – | – | 0.108 | 102 ± 0 | 77 ± 2 | 52 | –
CC(C)(C)c1ccc(C[S]2[Ru]3[S](Cc4ccc(C(C)(C)C)cc4)[Ru+]2[S]3c2ccc(-n3cc(Cn4ccc(=O)[nH]c4=O)nn3)cc2)cc1.Cc1ccc(C(C)C)cc1.Cc1ccc(C(C)C)cc1.[Cl-] [Compound 23] | – | – | 100 ± 1 | 64% | 0.426 | – | – | – | –
CC(C)(C)c1ccc(C[S]2[Ru]3[S](Cc4ccc(C(C)(C)C)cc4)[Ru+]2[S]3c2ccc(-n3cc(Cn4ccc(N)nc4=O)nn3)cc2)cc1.Cc1ccc(C(C)C)cc1.Cc1ccc(C(C)C)cc1.[Cl-] [Compound 25] | 82 ± 6 | – | – | – | – | 94 ± 9 | 91 ± 8 | – | –
CC(C)(C)c1ccc(C[S]2[Ru]3[S](Cc4ccc(C(C)(C)C)cc4)[Ru+]2[S]3c2ccc(-n3cc(Cn4cnc5c(N)ncnc54)nn3)cc2)cc1.Cc1ccc(C(C)C)cc1.Cc1ccc(C(C)C)cc1.[Cl-] [Compound 26] | 109 ± 6 | – | – | – | 0.178 | 109 ± 2 | 76 ± 0 | 45 | –
NC(=O)c1ccc(-c2cn(Cc3cc(=O)[nH]c(=O)[nH]3)nn2)cc1 [Compound 29] | – | – | – | – | – | 101 ± 1 | – | – | –
CC(C)(C)c1ccc(C[S]2[Ru]3[S](Cc4ccc(C(C)(C)C)cc4)[Ru+]2[S]3c2ccc(CC(=O)OCc3cn(Cc4cc(=O)[nH]c(=O)[nH]4)nn3)cc2)cc1.Cc1ccc(C(C)C)cc1.Cc1ccc(C(C)C)cc1.[Cl-] [Compound 30] | – | – | 114 ± 0 | 97% | 0.659 | – | – | – | –
CC(C)(C)c1ccc(C[S]2[Ru]3[S](Cc4ccc(C(C)(C)C)cc4)[Ru+]2[S]3c2ccc(CC(=O)NCc3cn(Cc4cc(=O)[nH]c(=O)[nH]4)nn3)cc2)cc1.Cc1ccc(C(C)C)cc1.Cc1ccc(C(C)C)cc1.[Cl-] [Compound 31] | – | – | – | – | – | 99 ± 3 | – | – | –
CC(C)(C)c1ccc(C[S]2[Ru]3[S](Cc4ccc(C(C)(C)C)cc4)[Ru+]2[S]3c2ccccc2Cn2cc(-c3ccccc3)nn2)cc1.Cc1ccc(C(C)C)cc1.Cc1ccc(C(C)C)cc1.[Cl-] [Compound 34] | 7 ± 0 | 1 ± 0 | 96 ± 1 | highly toxic and 3% | 0.092 | – | – | – | 70 ± 1
CC(C)(C)c1ccc(C[S]2[Ru]3[S](Cc4ccc(C(C)(C)C)cc4)[Ru+]2[S]3c2ccccc2Cn2cc(-c3ccc(CO)cc3)nn2)cc1.Cc1ccc(C(C)C)cc1.Cc1ccc(C(C)C)cc1.[Cl-] [Compound 35] | 1 ± 0 | 0 ± 0 | – | – | – | 89 ± 0 | – | – | –
CC(C)(C)c1ccc(C[S]2[Ru]3[S](Cc4ccc(C(C)(C)C)cc4)[Ru+]2[S]3c2ccccc2Cn2cc(CO)nn2)cc1.Cc1ccc(C(C)C)cc1.Cc1ccc(C(C)C)cc1.[Cl-] [Compound 36] | – | 0 ± 0 | 115 ± 1 | low toxicity and medium toxicity and 77% | 0.111 | – | – | – | –
CC(C)(C)c1ccc(C[S]2[Ru]3[S](Cc4ccc(C(C)(C)C)cc4)[Ru+]2[S]3c2ccc(-n3cc(-c4ccccc4)nn3)cc2)cc1.Cc1ccc(C(C)C)cc1.Cc1ccc(C(C)C)cc1.[Cl-] [Compound 37] | 13 ± 1 | 0 ± 0 | 99 ± 1 | highly toxic and 17% | 0.096 | – | – | – | 71 ± 0
CC(C)(C)c1ccc(C[S]2[Ru]3[S](Cc4ccc(C(C)(C)C)cc4)[Ru+]2[S]3c2ccc(-n3cc(CO)nn3)cc2)cc1.Cc1ccc(C(C)C)cc1.Cc1ccc(C(C)C)cc1.[Cl-] [Compound 38] | 42 ± 2 | 0 ± 0 | – | – | 0.128 | 104 ± 1 | 71 ± 1 | 59 | –
